{"source": "the NIST ThermoML archive (doi:10.1021/je200651r)", "key": {"[1]": {"conditions": "Liquid, Manometric method"}, "[2]": {"assay": "refractive index (Na D-line) (dimensionless)", "conditions": "298.15 K; 101.33 kPa; Liquid; Standard Abbe refractometry"}}, "note": "± gives the expanded uncertainty stated by the source."}
{"smiles": "ClCCCCl", "note": "[1,3-dichloropropane]", "values": [{"measurement": "vapor or sublimation pressure", "setting": "[1]; 343.15 K", "value": "18.31 ± 0.19", "unit": "kPa"}, {"measurement": "vapor or sublimation pressure", "setting": "[1]; 353.15 K", "value": "26.84 ± 0.22", "unit": "kPa"}, {"measurement": "vapor or sublimation pressure", "setting": "[1]; 363.15 K", "value": "38.65 ± 0.27", "unit": "kPa"}, {"measurement": "refractive index", "setting": "[2]", "value": "1.4462 ± 0.0008"}]}
{"smiles": "CC[N+](=O)[O-]", "note": "[nitroethane]", "values": [{"measurement": "vapor or sublimation pressure", "setting": "[1]; 343.15 K", "value": "22.46 ± 0.23", "unit": "kPa"}, {"measurement": "vapor or sublimation pressure", "setting": "[1]; 353.15 K", "value": "32.84 ± 0.29", "unit": "kPa"}, {"measurement": "vapor or sublimation pressure", "setting": "[1]; 363.15 K", "value": "47.13 ± 0.37", "unit": "kPa"}, {"measurement": "refractive index", "setting": "[2]", "value": "1.3898 ± 0.0009"}]}
{"smiles": "C[N+](=O)[O-]", "note": "[nitromethane]", "values": [{"measurement": "vapor or sublimation pressure", "setting": "[1]; 343.15 K", "value": "34.93 ± 0.31", "unit": "kPa"}, {"measurement": "vapor or sublimation pressure", "setting": "[1]; 353.15 K", "value": "50.14 ± 0.41", "unit": "kPa"}, {"measurement": "vapor or sublimation pressure", "setting": "[1]; 363.15 K", "value": "70.81 ± 0.53", "unit": "kPa"}, {"measurement": "refractive index", "setting": "[2]", "value": "1.3794 ± 0.0009"}]}
